Drawing on patent US10633389B2, “CARM1 inhibitors and uses thereof” (Epizyme, Inc., priority 2013, dated 2020), this text covers IC50 for 31 compounds.

Bounds are passed on as bounds.

One may read the IC50 as the point on the concentration scale where inhibition reaches its midpoint.

The subject of this assay is asymmetric di-methyl PABP1 in RKO cells. Briefly: RKO methylation assay, In Cell Western (ICW) for asymmetric di-methyl PABP1. It counts as cell-based. The following applies: Homo sapiens, RKO, Cellular potencies, ICW PABP1me2a. In outline:
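RKO cells treated with compound for 48 h at 37 °C, then fixed, permeabilized and immunostained for asymmetric di-methyl PABP1, with DRAQ5 as DNA stain. Infrared 700/800 nm signal ratio normalized to DMSO and 20 μM reference-compound controls; IC50 from triplicate wells.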

`CNCC(O)COc1cccc(-c2nc(NC3CC(C(=O)OC)C3)cc(-c3c(C)noc3C)n2)c1` (stereo not shown) [Example 45-1a] registered an IC50 of less than 5 µM.
`CNC[C@@H](O)COc1ccc(Cl)c(-c2nc(-c3c(C)noc3C)c(Cl)c(N3Cc4nc(C)sc4C3)n2)c1` [Example 243-3] gave an IC50 of less than 5 µM.
As to `CNCC(O)COc1cccc(-c2nc(-c3nc(C)cs3)cc(N(C)C3CCOCC3)n2)c1` (stereo not shown) [Example 624-1a], the IC50 lay within 10 to 20 µM.
Then `CNC[C@@H](O)COc1ccc(Cl)c(-c2nc(-c3c(C)noc3C)c(C)c(N3Cc4[nH]c(=O)[nH]c(=O)c4C3)n2)c1` [Example 279-3], with 10 to 20 µM; and `CNCC(O)COc1cccc(-c2nc(-c3c(C)noc3C)cc(N3CCN[C@@H](C)C3)n2)c1` (stereo partly shown) [Example 40-1a], with 10 to 20 µM.
With `CNCC(O)COc1cccc(-c2nc(-c3c(C)nn(C)c3C)cc(N(C)C3CCOCC3)n2)c1` (stereo not shown) [Example 528-1a], the concentration for half-maximal inhibition (IC50) was in the range of 5 to 10 µM.
Then `CNCC(O)COc1cccc(-c2nc(N[C@H]3CC[C@H](O)C3)c(C)c(-c3c(C)noc3C)n2)c1` (stereo partly shown) [Example 135-1a], with less than 5 µM; and `CCS(=O)(=O)N1CC(Nc2nc(-c3cccc(OCC(O)CNC)c3)nc(-c3c(C)noc3C)c2C)C1` (stereo not shown) [Example 273-1a], with 10 to 20 µM; and `CNCC(O)COc1cccc(-c2nc(-c3ccncc3)cc(N(C)C3CCNCC3)n2)c1` (stereo not shown) [Example 669-1a], with no less than 20 µM.
The compound `CNC[C@@H](O)COc1ccc(F)c(-c2nc(-c3c(C)noc3C)c(C)c(N3Cc4nccnc4C3)n2)c1` [Example 226-3] registered an IC50 of less than 5 µM.
The figure for `CNCC(O)COc1cccc(-c2nc(-c3cncnc3)cc(-c3c(C)noc3C)n2)c1` (stereo not shown) [Example 8-1a] is 10 to 20 µM; for `CNC[C@@H](O)COc1ccc(Cl)c(-c2nc(-c3c(C)noc3C)c(C)c(N3CC4(CCCO4)C3)n2)c1` [Example 121-3] it is less than 5 µM; for `CNCC(O)COc1cccc(-c2nc(OCC3CCN(S(C)(=O)=O)CC3)c(C)c(-c3c(C)noc3C)n2)c1` (stereo not shown) [Example 286-1a] it is less than 5 µM.
Then `CNCC(O)COc1cccc(-c2nc(-c3c(C)noc3C)c(C)c(N3CC(NC(=O)N(C)C)C3)n2)c1` (stereo not shown) [Example 13-3], with less than 5 µM; and `CNCC(O)COc1cccc(-c2nc(N[C@H]3CCC[C@H]3O)c(C)c(-c3c(C)noc3C)n2)c1` (stereo partly shown) [Example 218-1a], with less than 5 µM; and `CNCC(O)COc1cccc(-c2nc(N(C)C3CCOCC3)cc(-n3nc(C)cc3C)n2)c1` (stereo not shown) [Example 568-1a], with 10 to 20 µM.
Compound `CCOC(=O)N1CCC(CNc2nc(-c3cccc(OCC(O)CNC)c3)nc(-c3c(C)noc3C)c2C)CC1` (stereo not shown) [Example 191-1a] came in with an IC50 of less than 5 µM.
Then `CNC[C@@H](O)COc1ccc(Cl)c(-c2nc(-c3c(C)noc3C)c(C)c(N3Cc4cnc(C(C)C)nc4C3)n2)c1` [Example 264-3], with less than 5 µM; and `CNCC(O)COc1cccc(-c2nc(OCC3CCN(C(=O)OCc4ccccc4)CC3)c(C)c(-c3c(C)noc3C)n2)c1` (stereo not shown) [Example 259-1a], with less than 5 µM.
Then `CNCC(O)COc1cccc(-c2nc(NCC3CCOCC3)cc(-c3c(C)noc3C)n2)c1` (stereo not shown) [Example 78-1a], with 5 to 10 µM.
Turning to `CNCC(O)COc1cccc(-c2nc(NC3CCOCC3)c(C)c(-c3c(CO)noc3C)n2)c1` (stereo not shown) [Example 256-3], the IC50 lay within 5 to 10 µM.
Consider `CCOC(=O)N1CCCC[C@@H]1CNc1nc(-c2cc(OC[C@H](O)CNC)ccc2Cl)nc(-c2c(C)noc2C)c1C` [Example 154-3], for which the IC50 is less than 5 µM.
Compound `CNCC(O)COc1cccc(-c2nc(N[C@@H]3CCN(C4CC4)C[C@H]3F)c(C)c(-c3c(C)noc3C)n2)c1` (stereo partly shown) [Example 261-1a] showed an IC50 of less than 5 µM.
In turn, `CNCC(O)COc1cccc(-c2nc(N[C@@H]3CCOC3)c(C)c(N3CC[C@H](N(C)C)C3)n2)c1` (stereo partly shown) [Example 368-1a] registered a 50% inhibitory concentration (IC50) of less than 5 µM.
Then `CNC[C@@H](O)COc1ccc(F)c(-c2nc(-c3c(C)noc3C)c(C)c(N3Cc4cc(F)cnc4C3)n2)c1` [Example 164-3], with less than 5 µM; and `CNCC(O)COc1cccc(-c2nc(-c3c(C)noc3C)c(C)c(N3CC[C@H](C(=O)N(C)C)C3)n2)c1` (stereo partly shown) [Example 162-1a], with less than 5 µM.
Regarding `CNCC(O)COc1cc(Cl)cc(-c2nc(-c3ccncc3)c(Br)c(N(C)C3CCOCC3)n2)c1` (stereo not shown) [Example 611-1a], the IC50 is 10 to 20 µM.
In turn, `CNC[C@H](O)COc1ccc(Cl)c(-c2nc(N[C@@H]3CCOC3)c(C)c(-c3c(C)noc3C)n2)c1` [Example 94-3] gave an IC50 of less than 5 µM.
Then `CNC[C@H](O)COc1ccc(F)c(-c2nc(NC3CCOCC3)c(C)c(-c3c(C)noc3C)n2)c1` [Example 72-3], with less than 5 µM; and `CNCC(O)COc1cccc(-c2nc(-c3ccncc3)c(C)c(N(C)C3CCOCC3)n2)c1` (stereo not shown) [Example 537-1a], with 5 to 10 µM.
Then `CNCC(O)COc1cccc(-c2nc(-c3cn(C)c(C)n3)cc(N(C)C3CCOCC3)n2)c1` (stereo not shown) [Example 529-1a], with 5 to 10 µM.
